Laboratory results reported in ChEMBL document CHEMBL5316263, “Structure-Based Discovery of Selective Histone Deacetylase 8 Degraders with Potent Anticancer Activity” (J Med Chem, 2023).
Calls of active or inactive are those of the source. The rule behind the calls is not given here.

Key:
A549 [1] = test: Induction of apoptosis in human A549 cells assessed as early apoptotic cells at 5 uM by annexin V-FITC staining based flow cytometry (reference value: 0%); format: functional
A549 [2] = test: Inhibition of colony formation in SiRNA mediated HDAC8 knockdown human A549 cells assessed as decrease in cell proliferation at 2.5 to 10 uM measured after 7 to 10 days with media replenishment along with compound for every 3 days by crystal violet staining based analysis; format: functional; settings: dose 2.5-10 µM, time 7-10 day
A549 [3] = test: Induction of apoptosis in human A549 cells assessed as late apoptotic cells at 1.25 uM incubated for 72 hrs by annexin V-FITC staining based flow cytometry (reference value: 0.048%); format: functional
A549 [4] = test: Induction of cell cycle arrest in human A549 cells assessed as accumulation of cells at G2/M phase at 5 uM measured after 48 hrs by propidium iodide staining based flow cytometry analysis; format: functional
[5] = target: Protein cereblon/Histone deacetylase 1 (Homo sapiens) (UniProt Q13547+Q96SW2); test: Protac activity at CRBN/HDAC1 in human A549 cells assessed as reduction in HDAC1 protein level at 0.1 to 10 uM by Western blot analysis; format: cell-based; settings: dose 0.1-10 µM
Sequence of Protein cereblon/Histone deacetylase 1 (Homo sapiens) (Q13547 whole entry, looked up): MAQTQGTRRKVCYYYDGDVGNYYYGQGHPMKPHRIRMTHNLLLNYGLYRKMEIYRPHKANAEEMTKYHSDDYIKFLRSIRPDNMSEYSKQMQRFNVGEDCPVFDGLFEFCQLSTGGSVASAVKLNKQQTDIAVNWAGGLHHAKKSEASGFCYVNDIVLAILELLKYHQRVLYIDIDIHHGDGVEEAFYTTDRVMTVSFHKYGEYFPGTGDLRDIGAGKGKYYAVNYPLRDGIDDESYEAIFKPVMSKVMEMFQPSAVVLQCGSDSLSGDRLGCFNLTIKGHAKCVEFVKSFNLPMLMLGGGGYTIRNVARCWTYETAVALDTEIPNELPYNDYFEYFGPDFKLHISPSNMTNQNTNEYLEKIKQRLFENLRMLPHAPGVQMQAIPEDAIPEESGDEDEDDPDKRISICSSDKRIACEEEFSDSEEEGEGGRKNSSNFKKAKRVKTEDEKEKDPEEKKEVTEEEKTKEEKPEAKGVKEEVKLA
Sequence of Protein cereblon/Histone deacetylase 1 (Homo sapiens) (Q96SW2 whole entry, looked up): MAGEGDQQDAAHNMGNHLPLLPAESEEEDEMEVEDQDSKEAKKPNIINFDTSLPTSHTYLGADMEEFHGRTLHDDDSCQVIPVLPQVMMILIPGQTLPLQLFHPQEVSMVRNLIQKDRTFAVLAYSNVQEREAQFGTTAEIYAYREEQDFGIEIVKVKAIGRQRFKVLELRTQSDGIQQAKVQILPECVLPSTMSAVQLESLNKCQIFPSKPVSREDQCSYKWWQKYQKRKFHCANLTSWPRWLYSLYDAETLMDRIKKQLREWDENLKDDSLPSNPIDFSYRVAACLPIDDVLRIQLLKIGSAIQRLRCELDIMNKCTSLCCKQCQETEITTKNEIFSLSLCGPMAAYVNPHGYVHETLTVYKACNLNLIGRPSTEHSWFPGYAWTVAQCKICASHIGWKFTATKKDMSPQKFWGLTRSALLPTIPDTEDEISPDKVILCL

[6] = target: T1, Protein cereblon/Histone deacetylase 8 (Homo sapiens) (UniProt Q9BY41+Q96SW2); test: Protac activity at CRBN/HDAC8 in human Jurkat cells at 0.1 to 10 uM measured after 20 hrs by Western blot analysis; format: cell-based; settings: dose 0.1-10 µM
T1 sequence (Q96SW2 whole entry, looked up): as above
T1 sequence (Q9BY41 whole entry, looked up): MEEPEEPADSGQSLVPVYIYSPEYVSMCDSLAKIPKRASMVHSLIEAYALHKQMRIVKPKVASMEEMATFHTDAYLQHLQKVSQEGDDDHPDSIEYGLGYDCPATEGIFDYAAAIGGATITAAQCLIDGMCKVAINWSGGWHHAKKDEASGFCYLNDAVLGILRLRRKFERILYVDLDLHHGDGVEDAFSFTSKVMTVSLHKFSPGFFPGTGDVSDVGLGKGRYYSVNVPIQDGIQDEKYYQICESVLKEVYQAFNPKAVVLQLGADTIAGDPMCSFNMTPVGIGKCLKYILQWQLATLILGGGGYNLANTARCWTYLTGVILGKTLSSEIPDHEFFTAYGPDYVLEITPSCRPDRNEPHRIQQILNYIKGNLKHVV

A549 [7] = test: Antiproliferative activity against human A549 cells assessed as inhibition of cell growth measured after 72 hrs by CCK-8 method; format: functional, cell-based
A549 [8] = test: Induction of apoptosis in human A549 cells assessed as early apoptotic cells at 2.5 uM incubated for 72 hrs by annexin V-FITC staining based flow cytometry (reference value: 0.099%); format: functional
A549 [9] = test: Induction of apoptosis in human A549 cells incubated for 72 hrs by annexin V-FITC staining based flow cytometry; format: functional, cell-based; settings: dose 1.25-20 µM
A549 [10] = test: Induction of apoptosis in human A549 cells assessed as necrotic cells at 20 uM incubated for 72 hrs by annexin V-FITC staining based flow cytometry relative to control; format: functional
HCT-116 [11] = test: Inhibition of colony formation in human HCT-116 cells assessed as reduction in cell proliferation at 2.5 to 10 uM measured after 7 to 10 days with media replenishment along with compound for every 3 days by crystal violet staining based analysis; format: functional; settings: dose 2.5-10 µM, time 7-10 day
A549 [12] = test: Inhibition of HDAC8 foci formation in human A549 cells measured after 20 hrs by DAPI staining based immunofluorescence assay; format: functional, cell-based; settings: dose 0.5-8 µM
A549 [13] = test: Effect on HDAC8 mRNA level in human A549 cells at 10 uM measured after 20 hrs by RNA sequencing analysis; format: functional, cell-based
A549 [14] = test: Antitumor activity against human A549 cells xenografted in NOD/SCID mouse assessed as decrease in HDAC8 expression at 5 mg/kg, ip administered every 5 days measured at day 30 by […] analysis; format: functional, organism-based; settings: time 30.0 day
[15] = target: T1, Protein cereblon/Histone deacetylase 8 (Homo sapiens); test: Protac activity at CRBN/HDAC8 in human A549 cells assessed as reduction in HDAC8 protein levels at 10 uM measured after 16 hrs by Western blot analysis; format: cell-based
[16] = target: T1, Protein cereblon/Histone deacetylase 8 (Homo sapiens); test: Protac activity at CRBN/HDAC8 in human A549 cells at 10 uM measured preincubated for 20 hrs followed by drug washout and measured after 48 hrs by Western blot analysis; format: cell-based
[17] = target: T1, Protein cereblon/Histone deacetylase 8 (Homo sapiens); test: Protac activity at CRBN/HDAC8 in human HeLa cells assessed as reduction in HDAC8 protein level at 0.1 to 10 uM by Western blot analysis; format: cell-based; settings: dose 0.1-10 µM
A549 [18] = test: Downregulation of RIMKLB in human A549 cells measured after 20 hrs by proteomic analysis; format: functional, cell-based
Jurkat = test: Antiproliferative activity against human Jurkat cells at 0.1 to 10 uM measured after 72 hrs by CCK-8 method; format: functional, cell-based; settings: dose 0.1-10 µM
A549 [19] = test: Antiproliferative activity against human A549 cells assessed as inhibition of cell growth measured after 72 hrs under irradiation by CCK-8 method; format: functional, cell-based; settings: A549, light or radiation study
A549 [20] = test: Induction of apoptosis in human A549 cells assessed as viable cells at 5 uM by annexin V-FITC staining based flow cytometry (reference value: 100%); format: functional; settings: read-out: Activity
A549 [21] = test: Downregulation of HSPA6 in human A549 cells measured after 20 hrs by proteomic analysis; format: functional, cell-based
[22] = target: T1, Protein cereblon/Histone deacetylase 8 (Homo sapiens); test: Protac activity at CRBN/HDAC8 in human A549 cells assessed as reduction in HDAC8 protein level at 10 uM by Western blot analysis relative to control; format: cell-based; parameters: scale not given: the % may be the effect or the level left
[23] = target: Protein cereblon/Histone deacetylase 2 (Homo sapiens) (UniProt Q92769+Q96SW2); test: Protac activity at CRBN/HDAC2 in human A549 cells assessed as reduction in HDAC2 protein level at 0.1 to 10 uM by Western blot analysis; format: cell-based; settings: dose 0.1-10 µM
Sequence of Protein cereblon/Histone deacetylase 2 (Homo sapiens) (Q92769 whole entry, looked up): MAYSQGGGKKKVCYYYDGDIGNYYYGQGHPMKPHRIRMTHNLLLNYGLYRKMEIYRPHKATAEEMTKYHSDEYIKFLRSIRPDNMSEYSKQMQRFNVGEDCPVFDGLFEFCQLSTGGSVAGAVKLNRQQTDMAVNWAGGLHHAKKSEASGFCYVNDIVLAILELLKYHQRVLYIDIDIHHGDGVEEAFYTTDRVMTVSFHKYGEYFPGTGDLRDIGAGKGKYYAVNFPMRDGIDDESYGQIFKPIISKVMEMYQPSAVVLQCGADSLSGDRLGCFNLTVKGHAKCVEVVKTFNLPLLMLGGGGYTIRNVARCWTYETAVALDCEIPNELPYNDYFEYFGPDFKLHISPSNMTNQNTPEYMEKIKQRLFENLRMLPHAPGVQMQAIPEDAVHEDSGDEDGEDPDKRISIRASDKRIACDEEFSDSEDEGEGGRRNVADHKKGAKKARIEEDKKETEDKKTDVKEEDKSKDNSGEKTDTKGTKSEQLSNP
Sequence of Protein cereblon/Histone deacetylase 2 (Homo sapiens) (Q96SW2 whole entry, looked up): as the sequence (Q96SW2 whole entry, looked up) above

A549 [24] = test: Effect on MAPK4 gene in human A549 cells at 10 uM measured after 20 hrs by RNA sequencing analysis; format: functional, cell-based
A549 [25] = test: Effect on MAFK gene in human A549 cells at 10 uM measured after 20 hrs by RNA sequencing analysis; format: functional, cell-based
A549 [26] = test: Inhibition of DNA damage repair in human A549 cells assessed as reduction in Ku80 protein level at 5 uM incubated for 24 hrs by immunofluorescence staining based analysis; format: functional, cell-based
[27] = target: Protein cereblon/NAD-dependent protein deacetylase sirtuin-7 (Homo sapiens) (UniProt Q9NRC8+Q96SW2); test: Protac activity at CRBN/Sirt7 in human A549 cells assessed as reduction in Sirt7 protein level at 0.1 to 10 uM by Western blot analysis; format: cell-based; settings: dose 0.1-10 µM
Sequence of Protein cereblon/NAD-dependent protein deacetylase sirtuin-7 (Homo sapiens) (Q96SW2 whole entry, looked up): as above
Sequence of Protein cereblon/NAD-dependent protein deacetylase sirtuin-7 (Homo sapiens) (Q9NRC8 whole entry, looked up): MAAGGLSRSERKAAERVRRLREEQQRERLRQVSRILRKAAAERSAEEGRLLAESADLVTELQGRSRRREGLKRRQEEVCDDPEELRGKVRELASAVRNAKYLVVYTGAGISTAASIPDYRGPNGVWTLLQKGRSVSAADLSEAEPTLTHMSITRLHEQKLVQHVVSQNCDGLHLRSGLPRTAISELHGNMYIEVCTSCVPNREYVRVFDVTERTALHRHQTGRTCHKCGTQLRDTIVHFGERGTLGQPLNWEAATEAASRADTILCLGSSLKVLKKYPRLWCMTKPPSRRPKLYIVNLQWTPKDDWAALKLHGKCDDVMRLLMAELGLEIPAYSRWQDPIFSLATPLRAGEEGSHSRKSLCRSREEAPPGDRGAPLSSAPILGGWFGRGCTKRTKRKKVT

A549 [28] = test: Inhibition of DNA damage repair in human A549 cells assessed as reduction in number of gamma-H2AX foci at 5 uM incubated for 24 hrs followed by irradiation for 4 hrs by immunofluorescence staining based analysis; format: functional, cell-based
HBEC3-KT = test: Antiproliferative activity against human HBEC3-KT cells at 0.1 to 10 uM measured after 72 hrs by CCK-8 method; format: functional, cell-based; settings: dose 0.1-10 µM
HCT-116 [29] = test: Inhibition of HDAC8 foci formation in human HCT-116 cells measured after 20 hrs by DAPI staining based immunofluorescence assay; format: functional, cell-based; settings: dose 0.5-8 µM
A549 [30] = test: Induction of apoptosis in human A549 cells assessed as downregulation of PCNA level at 1.25 to 20 uM measured after 48 hrs by Western blot analysis; format: functional, cell-based; settings: dose 1.25-20 µM
[31] = target: T1, Protein cereblon/Histone deacetylase 8 (Homo sapiens); test: Protac activity at CRBN/HDAC8 in human HBEC3-KT cells at 0.1 to 10 uM measured after 20 hrs by Western blot analysis; format: cell-based; settings: dose 0.1-10 µM
A549 [32] = test: Induction of apoptosis in human A549 cells assessed as early apoptotic cells at 5 uM incubated with compound followed by irradiation by annexin V-FITC staining based flow cytometry (reference value: 6.26%); format: functional
A549 [33] = test: Induction of apoptosis in human A549 cells assessed as necrotic cells at 5 uM incubated with compound followed by irradiation by annexin V-FITC staining based flow cytometry (reference value: 2.02%); format: functional
HCT-116 [34] = test: Induction of apoptosis in human HCT-116 cells assessed as necrotic cells at 5 uM incubated for 48 hrs by annexin V FITC and propidium iodide based flow cytometry relative to control; format: functional

Activity [5]: inactive
Activity [6]: inactive
IC50 (A549 [7]; A549, 72 h): 9.55 µM
Activity [15]: Active
Activity [16]: inactive
Activity [17]: Active
IC50 (A549 [19]): 6.04 µM
Activity [22]: > 90%
Activity [23]: inactive
Activity [27]: inactive
Activity [31]: inactive
Structure (SMILES): O=C1CCC(N2C(=O)c3cccc(NCc4cn(CCOCCOc5ccc(Cn6ccc7ccc(C(=O)NO)cc76)cc5)nn4)c3C2=O)C(=O)N1 (configuration not stated)
Activity (A549 [1]): 15.4%
inhibition (A549 [2]): Active
Activity (A549 [3]): 7.4%
Activity (A549 [4]): Active
Activity (A549 [7]; dose <= 1.5 µM): Dose-Dependent Effect
Activity (A549 [8]): 22.5%
Activity (A549 [9]): Dose-Dependent Effect
Activity (A549 [10]): 0%
inhibition (HCT-116 [11]): Active
inhibition (A549 [12]): Dose-Dependent Effect
Activity (A549 [13]): inactive
Activity (A549 [14]): Active
Activity (A549 [18]): Active
Activity (Jurkat): Active
viability at 5 µM (A549 [20]): 77%
Activity (A549 [21]): Active
Activity (A549 [24]): Active
Activity (A549 [25]): Active
inhibition (A549 [26]): Active
inhibition (A549 [28]): Active
Activity (HBEC3-KT): Active
inhibition (HCT-116 [29]): Dose-Dependent Effect
Activity (A549 [30]): Active
Activity (A549 [32]): 26.7%
Activity (A549 [33]): 0.75%
Activity (HCT-116 [34]): 10%
